Experimental data from PubChem BioAssay (NCI).
Where “and” joins values, the source holds several entries; their conditions need not be identical. Identical values can stand only once.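 Method: 48-hour compound exposure of cells in 96-well plates, five concentrations, linear interpolation of endpoints. Here, GI50 denotes the concentration required for 50% inhibition of growth. The concentration for full growth arrest is given as TGI.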

Columns and labels:
Assay in all cases: growth of human tumour cells (NCI), 48 h
[1] = tested on: 786-0 renal
[2] = tested on: A549 NSCLC
[3] = tested on: ACHN renal
[4] = tested on: CAKI-1 renal
[5] = tested on: CCRF-CEM leukemia
[6] = tested on: COLO 205 colon
[7] = tested on: DLD-1 colon
[8] = tested on: DMS 114 small cell lung
[9] = tested on: DMS 273 small cell lung
[10] = tested on: EKVX NSCLC
[11] = tested on: HCC-2998 colon
[12] = tested on: HCT-116 colon
[13] = tested on: HCT-15 colon
[14] = tested on: HL-60(TB) leukemia
[15] = tested on: HOP-18 NSCLC
[16] = tested on: HOP-62 NSCLC
[17] = tested on: HT29 colon
[18] = tested on: IGROV1 ovarian
[19] = tested on: K-562 leukemia
[20] = tested on: KM12 colon
[21] = tested on: KM20L2 colon
[22] = tested on: LOX IMVI melanoma
[23] = tested on: LXFL 529 NSCLC
[24] = tested on: M14 melanoma
[25] = tested on: M19-MEL melanoma
[26] = tested on: MALME-3M melanoma
[27] = tested on: MOLT-4 leukemia
[28] = tested on: NCI-H226 lung
[29] = tested on: NCI-H23 lung
[30] = tested on: NCI-H460 lung
[31] = tested on: NCI-H522 lung
[32] = tested on: OVCAR-3 ovarian
[33] = tested on: OVCAR-4 ovarian
[34] = tested on: OVCAR-8 ovarian
[35] = tested on: RPMI-8226 leukemia
[36] = tested on: RXF 393 renal
[37] = tested on: SF-268 CNS
[38] = tested on: SF-295 CNS
[39] = tested on: SF-539 CNS
[40] = tested on: SK-MEL-2 melanoma
[41] = tested on: SK-MEL-28 melanoma
[42] = tested on: SK-MEL-5 melanoma
[43] = tested on: SK-OV-3 ovarian
[44] = tested on: SN12C renal
[45] = tested on: SNB-19 CNS
[46] = tested on: SNB-75 CNS
[47] = tested on: SNB-78 CNS
[48] = tested on: SW-620 colon
[49] = tested on: TK-10 renal
[50] = tested on: U251 CNS
[51] = tested on: UACC-257 melanoma
[52] = tested on: UACC-62 melanoma
[53] = tested on: UO-31 renal
[54] = tested on: XF 498 CNS
[55] = tested on: A498 renal
[56] = tested on: HOP-92 NSCLC
[57] = tested on: OVCAR-5 ovarian
[58] = tested on: SR leukemia
[59] = tested on: BT-549 breast
[60] = tested on: DU-145 prostate
[61] = tested on: HS 578T breast
[62] = tested on: MCF7 breast
[63] = tested on: MDA-MB-231 breast
[64] = tested on: MDA-MB-435
[65] = tested on: MDA-N
[66] = tested on: NCI/ADR-RES ovarian
[67] = tested on: PC-3 prostate
[68] = tested on: T-47D breast

Compound: O=C1SC(c2ccccc2)(c2ccccc2)c2ccccc21
- TGI [1]: > 100 µM
- TGI [2]: > 100 µM
- TGI [3]: > 100 µM
- TGI [4]: > 100 µM
- TGI [5]: > 100 µM
- TGI [6]: > 100 µM
- TGI [7]: > 100 µM
- TGI [8]: 94.4 µM
- TGI [9]: > 100 µM
- TGI [10]: > 100 µM
- TGI [11]: > 100 µM
- TGI [12]: > 100 µM
- TGI [13]: > 100 µM
- TGI [14]: > 100 µM
- TGI [15]: > 100 µM
- TGI [16]: > 100 µM
- TGI [17]: > 100 µM
- TGI [18]: > 100 µM
- TGI [19]: > 100 µM
- TGI [20]: > 100 µM
- TGI [21]: > 100 µM
- TGI [22]: > 100 µM
- TGI [23]: > 100 µM
- TGI [24]: > 100 µM
- TGI [25]: > 100 µM
- TGI [26]: > 100 µM
- TGI [27]: > 100 µM
- TGI [28]: > 100 µM
- TGI [29]: > 100 µM
- TGI [30]: > 100 µM
- TGI [31]: > 100 µM
- TGI [32]: > 100 µM
- TGI [33]: > 100 µM
- TGI [34]: > 100 µM
- TGI [35]: > 100 µM
- TGI [36]: > 100 µM
- TGI [37]: > 100 µM
- TGI [38]: > 100 µM
- TGI [39]: > 100 µM
- TGI [40]: > 100 µM
- TGI [41]: > 100 µM
- TGI [42]: > 100 µM
- TGI [43]: > 100 µM
- TGI [44]: > 100 µM
- TGI [45]: > 100 µM
- TGI [46]: > 100 µM
- TGI [47]: > 100 µM
- TGI [48]: > 100 µM
- TGI [49]: > 100 µM
- TGI [50]: > 100 µM
- TGI [51]: > 100 µM
- TGI [52]: > 100 µM
- TGI [53]: > 100 µM
- TGI [54]: > 100 µM

Compound: CCCCCCCCCCCCCC(=O)OC(/C=C/C(C)C)C(O)C(O)C(OC)C(=O)NC1CCCCNC1=O (stereo unspecified)
- GI50 [1]: 1.56 µM
- TGI [1]: 3.93 µM
- TGI [55]: 14.6 µM
- GI50 [2]: 1.12 µM
- TGI [2]: 4.28 µM
- GI50 [3]: 4.1 µM
- TGI [3]: 4.76 µM
- TGI [4]: 3.81 µM
- GI50 [5]: 5.7 µM
- TGI [5]: 11.9 µM
- TGI [6]: 3.69 µM
- TGI [7]: 5.07 µM
- TGI [8]: 3.85 µM
- TGI [9]: 2.81 µM
- TGI [10]: 11.5 µM
- GI50 [11]: 5.64 µM
- TGI [11]: 4.13 µM
- GI50 [12]: 1.22 µM
- TGI [12]: 3.97 µM
- GI50 [13]: 4.25 µM
- TGI [13]: 4.8 µM
- TGI [14]: 10.4 µM
- TGI [15]: 10.5 µM
- GI50 [16]: 3.88 µM
- TGI [16]: 6.8 µM
- TGI [56]: 3.76 µM
- GI50 [17]: 4.03 µM
- TGI [17]: 4.51 µM
- GI50 [18]: 0.65 µM
- TGI [18]: 5.15 µM
- GI50 [19]: 2.68 µM
- TGI [19]: 10.2 µM
- GI50 [20]: 3.92 µM
- TGI [20]: 4.59 µM
- TGI [21]: 4.89 µM
- GI50 [22]: 1.73 µM
- TGI [22]: 4.38 µM
- TGI [23]: 4.88 µM
- GI50 [24]: 2.61 µM
- TGI [24]: 4.35 µM
- TGI [26]: 5.36 µM
- GI50 [27]: 5.57 µM
- TGI [27]: 10.5 µM
- TGI [28]: 8.95 µM
- GI50 [29]: 8.82 µM
- TGI [29]: 5 µM
- GI50 [30]: 0.461 µM
- TGI [30]: 3.85 µM
- GI50 [31]: 5.27 µM
- TGI [31]: 4.23 µM
- GI50 [32]: 6.19 µM
- TGI [32]: 5.38 µM
- GI50 [33]: 3.97 µM
- TGI [33]: 6.76 µM
- TGI [57]: 9.63 µM
- GI50 [34]: 2.77 µM
- TGI [34]: 5.08 µM
- TGI [35]: 15.9 µM
- TGI [36]: 3.38 µM
- TGI [37]: 3.63 µM
- GI50 [38]: 2.92 µM
- TGI [38]: 4.42 µM
- GI50 [39]: 2.29 µM
- TGI [39]: 5.22 µM
- TGI [40]: 6.03 µM
- TGI [41]: 5.11 µM
- GI50 [42]: 6.53 µM
- TGI [42]: 5.25 µM
- TGI [43]: 10.4 µM
- TGI [44]: 4.39 µM
- TGI [45]: 9.08 µM
- GI50 [46]: 4.63 µM
- TGI [46]: 9.46 µM
- TGI [47]: 9.18 µM
- GI50 [58]: 0.381 µM
- TGI [58]: 2.04 µM and 9.05 µM
- GI50 [48]: 4.4 µM
- TGI [48]: 4.46 µM
- GI50 [49]: 8.26 µM
- TGI [49]: 11.6 µM
- GI50 [50]: 2.47 µM
- TGI [50]: 4.3 µM
- GI50 [51]: 6.37 µM
- TGI [51]: 6.5 µM
- GI50 [52]: 4.28 µM
- TGI [52]: 3.74 µM
- TGI [53]: 4.98 µM
- TGI [54]: 5.47 µM

Compound: CC(=O)[O-].[Ni].c1ccc(/C(=N\Nc2ccccn2)c2ccccn2)cc1
- TGI [1]: 22.1 µM
- TGI [55]: 36.3 µM
- TGI [2]: 49.2 µM
- TGI [3]: 53 µM
- TGI [59]: 45.1 µM
- TGI [4]: 39.3 µM
- GI50 [5]: 0.0976 µM
- TGI [5]: 44.3 µM
- GI50 [6]: 0.0121 µM
- TGI [7]: 32.7 µM
- TGI [8]: 3.36 µM
- TGI [9]: 25.5 µM
- TGI [60]: 25.1 µM
- GI50 [10]: 0.0973 µM
- TGI [10]: 55.5 µM
- TGI [11]: 19.8 µM
- TGI [12]: 18 µM
- TGI [13]: 41.1 µM
- TGI [14]: 0.61 µM
- GI50 [15]: 2.81 µM
- TGI [15]: > 100 µM
- TGI [16]: 30.1 µM
- TGI [56]: 22.3 µM
- TGI [61]: > 100 µM
- GI50 [17]: 0.056 µM
- TGI [17]: 23.8 µM
- TGI [18]: 29.7 µM
- TGI [19]: 28.1 µM
- TGI [20]: 23.1 µM
- TGI [21]: 22.1 µM
- TGI [22]: 22.3 µM
- TGI [23]: 16 µM
- TGI [24]: 17.8 µM
- TGI [25]: 39.3 µM
- TGI [26]: 20.9 µM
- GI50 [62]: 6.58 µM
- TGI [62]: 30.7 µM
- GI50 [63]: 6.01 µM
- TGI [63]: 22.8 µM
- TGI [64]: 22.4 µM
- TGI [65]: 21.1 µM
- GI50 [27]: 0.076 µM
- TGI [27]: 24.3 µM
- TGI [28]: 47.6 µM
- TGI [29]: 28.9 µM
- TGI [30]: 28 µM
- TGI [31]: 20.9 µM
- TGI [66]: 25.9 µM
- GI50 [32]: 0.0385 µM
- TGI [32]: 19.5 µM
- TGI [33]: > 59.7 µM
- TGI [57]: 47.3 µM
- TGI [34]: 31.6 µM
- TGI [67]: 19.9 µM
- TGI [35]: 16.3 µM
- TGI [36]: 30 µM
- TGI [37]: 30.1 µM
- TGI [38]: 26.8 µM
- TGI [39]: 24.7 µM
- TGI [40]: 24.9 µM
- TGI [41]: 18.8 µM
- TGI [42]: 18.3 µM
- TGI [43]: 43.2 µM
- TGI [44]: 29.3 µM
- TGI [45]: 54 µM
- TGI [46]: 46.1 µM
- TGI [47]: > 100 µM
- TGI [48]: 32.2 µM
- TGI [68]: 15.6 µM
- TGI [49]: 20.7 µM
- TGI [50]: 22.7 µM
- TGI [51]: 23.2 µM
- TGI [52]: 18.8 µM
- TGI [53]: 18.8 µM
